# Reference: patent US20170096492A1, “DOSAGE AND ADMINISTRATION OF ANTI-IGF-1R, ANTI-ErbB3 BISPECIFIC ANTIBODIES, USES THEREOF AND METHODS OF TREATMENT [sequence]” (Merrimack Pharmaceuticals, Inc., priority 2014, published 2017)
# Entries after “also recorded” stand apart in the source; their conditions may differ.
# Experiments:
# [1] = tested on: CFPAC-1 human pancreatic cancer cells; assay: HRG mRNA expression by real time PCR; assay type: cell-based; conditions: 24 hours
# Description: CFPAC-1 human pancreatic cancer cells were serum-starved by plating the cells in 2% serum-containing medium overnight, followed by treatment with vehicle, 500 nM gemcitabine, or 50 nM paclitaxel for 24 hours. Post-treatment, cell lysates were harvested, mRNA extracted, cDNA generated and changes in HRG mRNA expression evaluated by real time PCR. Bar graphs represent mean HRG mRNA expression relative to the geometric mean of three housekeeping genes (protein phosphatase 2 catalytic subunit alpha (PPP2CA), ribosomal protein L4 (RPL4), and glucuronidase beta (GUSB)), normalized to vehicle control.
# [2] = tested on: CFPAC-1 pancreatic cancer cells; assay: pAKT (Ser473) ELISA after chemotherapy and ligand stimulation; assay type: cell-based, human; conditions: then HRG 5 nM or IGF-1 50 nM 15 minutes
# Description: (§1) CFPAC-1 pancreatic cancer cells were seeded at 65% confluence in 10% serum-containing medium on 96-well plates overnight. […] Following incubation, cells were treated with (FIG. 24A) HRG (5 nM) or (FIG. 24B) IGF-1 (50 nM) for 15 minutes, where indicated. After treatment, cells were harvested and protein lysates generated. Changes in pAKT (Ser473) levels across all treatments were evaluated by pAKT ELISA, respectively. FIGS. 24(A-B) are bar graphs showing pAKT levels relative to ligand alone stimulated signals, which were normalized to 1.
# as §1, with “25A)” for “24A)”, “25B)” for “24B)”, “25(A-B)” for “24(A-B)”
# [3] = tested on: HepG2 hepatocellular carcinoma cells; assay: HepG2 western blot, sorafenib with or without MM-141; assay type: cell-based; conditions: sorafenib 5 μM, 2 hours
# Description: HepG2 cells were plated on 12 well dishes (3×10^5 cells per well) in 10% serum-containing media and incubated overnight. […] Following treatment, cells were harvested in lysis buffer containing protease and phosphatase inhibitors and analyzed by western blotting.
# [4] = tested on: DU145 prostate cancer-derived xenograft tumors; assay: DU145 xenograft PD, western blot; assay type: in vivo, mice; conditions: docetaxel 20 mpk i.p. single dose, tumors harvested Day 4
# Excerpt: (§2) For the PD studies described in FIGS. 6A-B and FIGS. 9 A-B, nu/nu female mice were inoculated with 8×10^6 DU145 or 5×10^6 BxPC-3 cells, respectively, in 1:1 Matrigel® suspension. […] Tumor lysates were generated and subjected to western blot analysis.
# CAKI-1 xenografts = assay: CAKI-1 xenograft PD, western blot; assay type: in vivo, mice; conditions: single agent; MM-141 30 mpk i.p. or everolimus 10 mpk orally, 2 doses; tumors harvested 24 hours after second dose
# Description: For the PD study results shown in FIGS. 3A-B and FIGS. 5A-C, NOD/SCID female mice were inoculated with 12×10^6 CAKI-1 or 10×10^6 SK-ES-1 cells, respectively, in 1:1 Matrigel® suspension. […] Tumors were harvested 24 hours after the second dose of drug; lysates were generated and subjected to western blot analysis.
# [5] = tested on: BxPC-3 derived xenograft tumors; assay: BxPC-3 xenograft PD, western blot; assay type: in vivo, mice; conditions: gemcitabine 150 mpk i.p. Day 0, 6; tumors harvested Day 7
# Excerpt: as §2
# mTOR = mTOR (Homo sapiens, UniProt P42345); conditions: cited from earlier work
smiles,measurement,setting,value
"CC(=O)O[C@H]1C(=O)[C@@]2(C)[C@H]([C@H](OC(=O)c3ccccc3)[C@]3(O)C[C@H](OC(=O)[C@H](O)[C@@H](NC(=O)c4ccccc4)c4ccccc4)C(C)=C1C3(C)C)[C@]1(OC(C)=O)CO[C@@H]1C[C@@H]2O [paclitaxel, Paclitaxel, reference compound]",HRG mRNA relative to vehicle control,[1]; 50 nM paclitaxel,at least doubles
same,"sensitivity to ligands, pAKT (Ser473)",[2]; paclitaxel 100 nM 24 hours,increased sensitivity to IGF-1
"CNC(=O)c1cc(Oc2ccc(NC(=O)Nc3ccc(Cl)c(C(F)(F)F)c3)cc2)ccn1 [sorafenib, Sorafenib]",ErbB3 level,[3],up-regulated; also recorded: upregulation of ErbB3 activity
same,pAKT level,[3],up-regulated
"CC(=O)O[C@@]12CO[C@@H]1C[C@H](O)[C@@]1(C)C(=O)[C@H](O)C3=C(C)[C@@H](OC(=O)[C@H](O)[C@@H](NC(=O)OC(C)(C)C)c4ccccc4)C[C@@](O)([C@@H](OC(=O)c4ccccc4)[C@H]21)C3(C)C [docetaxel, Docetaxel]",ErbB3 protein expression level,[4],up-regulated
same,IGF-1R protein expression level,[4],up-regulated
"CO[C@H]1C[C@@H]2CC[C@@H](C)[C@@](O)(O2)C(=O)C(=O)N2CCCC[C@H]2C(=O)O[C@H]([C@H](C)C[C@@H]2CC[C@@H](OCCO)[C@H](OC)C2)CC(=O)[C@H](C)/C=C(\C)[C@@H](O)[C@@H](OC)C(=O)[C@H](C)C[C@H](C)/C=C/C=C/C=C/1C [everolimus, Everolimus, reference compound]",total ErbB2,CAKI-1 xenografts,upregulation
same,total IGF-1R,CAKI-1 xenografts,upregulation
"Nc1ccn([C@@H]2O[C@H](CO)[C@@H](O)C2(F)F)c(=O)n1 [gemcitabine, Gemcitabine]",HRG mRNA increase relative to vehicle control,[1]; 500 nM gemcitabine,about 22 fold
same,total ErbB3,[5],up-regulation and activation
same,total IGF-1R,[5],up-regulation and activation
same,"sensitivity to ligands, pAKT (Ser473)",[2]; gemcitabine 1 μM 24 hours,increased sensitivity to HRG and IGF-1
COc1ccc(-c2ccc3c(N4CCOC[C@@H]4C)nc(N4CCOC[C@@H]4C)nc3n2)cc1CO [AZD8055],selectivity against PI3K isoforms and ATM/DNA-PK,mTOR,"~1,000 fold"
